# From patent US20210315893A1 (Galapagos NV, priority 2017, published 2021)
# Tests used:
# HFL-1 cells [1] = experiment: IL8 assay in the presence of Human Serum Albumin; settings: HFL1, read-out: HSA IL8 EC50
# HFL-1 cells [2] = experiment: IL-8 production assay (S1P induced IL-8); assay type: cell-based; settings: Homo sapiens, HFL1; S1P (1 μM) induced IL-8 in HFL-1 cells, starvation medium without HSA; read-out: IL8 EC50
# Outline: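 HFL-1 fibroblasts in low-serum medium were pretreated 1 h with a 10-point 1/3 series of compound starting at 30 μM (0.3% DMSO).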
# [3] = biological target: T1, human GPCR sphingosine 1-phosphate receptor 1 (Homo sapiens, UniProt P21453); experiment: S1PR1 selectivity Ca2+ flux assay (antagonist readout); assay type: cell-based; settings: antagonist readout, CHO cells overexpressing human S1PR1 and Gq, S1P at EC80 (6 nM); read-out: S1P1 EC50 (nM), S1P1 antagonist EC50
# T1 construct: host or cells: CHO
# T1 sequence (P21453 whole entry): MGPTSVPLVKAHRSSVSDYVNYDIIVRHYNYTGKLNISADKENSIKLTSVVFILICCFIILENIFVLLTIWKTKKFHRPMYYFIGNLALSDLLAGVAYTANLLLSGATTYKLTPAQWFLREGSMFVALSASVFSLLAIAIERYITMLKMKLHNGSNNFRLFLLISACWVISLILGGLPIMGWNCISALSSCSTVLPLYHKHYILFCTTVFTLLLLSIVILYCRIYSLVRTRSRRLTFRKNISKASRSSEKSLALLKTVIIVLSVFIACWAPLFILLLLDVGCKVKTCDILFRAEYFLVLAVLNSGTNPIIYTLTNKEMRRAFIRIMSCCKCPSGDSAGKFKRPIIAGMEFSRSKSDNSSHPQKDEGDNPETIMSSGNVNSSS
# Outline: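 Antagonist mode: S1P challenge follows 15 min compound preincubation at 37 °C. Cells are CHO stably expressing human S1PR1, serum-starved 1 h (0.1% FAF BSA), loaded with Fluo 8. Peak-over-baseline fluorescence ratio is normalized to positive/negative controls; IC50 from logistic curve fit.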
# [4] = tested on: bleomycin induced pulmonary fibrosis in mice; experiment: Therapeutic bleomycin induced pulmonary fibrosis 21-day mice model; assay type: in vivo; settings: 10 mg/kg BID
# Procedure: The aim of the study is to test the efficacy of a test compound at three different doses in a 21-day model of bleomycin induced pulmonary fibrosis in mice.
# (§1) This study is carried out on C57BL/6N male mice, supplied by Charles River, Italy, which are acclimatized for at least 5 days in an environment maintained at 22° C., at 55% relative humidity, with 15-20 air changes per h under light cycles of 12 h. Mice pelleted food and water are provided ad libitum.
# The solvent for the test solutions is prepared by adding 0.5 g of hydroxyethylcellulose (Natrosol) into 500 mL Aqua distillate (0.1%) under continuous stirring without heating for 5 h on a magnetic stirrer.
# Fresh Nintedanib formulation is prepared daily in 0.1% Natrosol formulations to a final concentration of 5 mg/mL. Before dosing, animals are weighed and the Nintedanib amount administered is adjusted accordingly to individual weights corresponding to 10 mL/kg body weight, once daily p.o.,
# Finally, test compound solutions are prepared by dissolving the suitable amount of said test compound in PEG 400 (20% of the final volume) then MC 0.5% (80% of the final volume) to reach final concentrations of 1 mg/mL, 0.3 mg/mL and 0.1 mg/mL, thus yielding compound for a doses of 10 mg/kg, 3 mg/kg and 1 mg/kg. […]
# (§2) Pulmonary histological changes are assessed using Matsuse modification of Ashcroft score (Ashcroft et al., 1988; Matsuse et al., 1999). […]
# [5] = tested on: bleomycin induced pulmonary fibrosis in mice; experiment: Prophylactic bleomycin induced pulmonary fibrosis 14-day mice model; assay type: in vivo; settings: 10 mg/kg BID
# Procedure: The aim of the study is totest the efficacy of atest compound at three different doses ina 14-day model of bleomycin induced pulmonary fibrosis in mice.
# as §1, with “[…]” for “C57BL/6N”
# The solvent for the test solutions is prepared by adding 0.5 g of hydroxyethylcellulose (Natrosol) into 500 mL Aqua distillate (0.1%) under continuous stirring without heating for 5 h on a magnetic stirrer. Anesthetic solution is prepared by adding 1 mL of Narketan (Narketan 10, Vetoquinol, Bern, Switzerland, 03605877535982) and 0.5 mL of Rompun (Rompun, 2%. Bayer, Leverkusen, Germany) into 9 mL saline. The resulting solution is administered at 10 mL/kg.
# Prior to i.n administration, mice are anesthetized i.p. with the anesthetic solution described above.
# Fresh pirfenidone formulation is prepared daily in 0.1% Natrosol formulations to a final concentration of 5 mg/mL. […]
# as §2
# [6] = biological target: T2, human GPCR sphingosine 1-phosphate receptor 2 (Homo sapiens, UniProt O95136); experiment: S1PR2 antagonist Ca2+ flux assay; assay type: cell-based; settings: antagonist mode, CHO-S1PR2 cells, S1P at EC80, Ca2+ fluorescence; read-out: S1P2 EC50 (nM), S1P2 antagonist EC50
# T2 construct: host or cells: CHO
# T2 sequence (O95136 whole entry): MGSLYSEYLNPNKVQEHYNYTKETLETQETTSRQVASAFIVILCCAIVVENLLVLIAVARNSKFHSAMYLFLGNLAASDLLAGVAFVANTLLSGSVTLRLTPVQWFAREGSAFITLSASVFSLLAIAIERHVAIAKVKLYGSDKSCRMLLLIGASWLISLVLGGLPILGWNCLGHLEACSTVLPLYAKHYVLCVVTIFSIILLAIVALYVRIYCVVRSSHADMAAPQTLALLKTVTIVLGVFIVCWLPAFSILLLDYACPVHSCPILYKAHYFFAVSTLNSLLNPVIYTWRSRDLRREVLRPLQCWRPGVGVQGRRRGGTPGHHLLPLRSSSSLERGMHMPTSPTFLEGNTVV
# Outline: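 Antagonist mode: 15 min after compound addition, S1P (EC80) stimulates Fluo8-loaded, 1 h-starved CHO-S1PR2 cells, Ca2+ read over 3 min; a prior 3-min read checks compound agonism. EC50 from peak/baseline fluorescence ratio, normalised versus vehicle and S1P EC50 (antagonist) or EC100 (agonist).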
# S1PR2 = biological target: T3, S1PR2 (Homo sapiens, UniProt O95136); experiment: S1PR2 binding assay (competition with radioactively labeled S1P, SpA); settings: membranes from stable cell line over expressing S1PR2, SpA beads; read-out: S1P2 EC50 (nM), S1PR2 binding EC50
# T3 construct: expressed in transfected cells
# T3 sequence (O95136 whole entry): as above
# Outline: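 Scintillation proximity read-out after 2 h room-temperature incubation of compound, [3H]S1P and S1PR2-overexpressing cell membranes on WGA-coated beads. Buffer: 20 mM Tris pH 7.5, 100 mM NaCl, 10 mM MgCl2, 1 mM Na3VO4, 0.4% fatty-acid-free BSA; plates counted immediately after centrifugation.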
# [7] = biological target: T4, human GPCR sphingosine 1-phosphate receptor 5 (Homo sapiens, UniProt Q9H228); experiment: S1PR5 selectivity Ca2+ flux assay (antagonist readout); assay type: cell-based; settings: CHO cells overexpressing human S1PR5 and Gq, agonist at EC80 (20 nM), read-out: S1P5 EC50 (nM), S1P5 antagonist EC50
# T4 construct: host or cells: CHO
# T4 sequence (Q9H228 whole entry): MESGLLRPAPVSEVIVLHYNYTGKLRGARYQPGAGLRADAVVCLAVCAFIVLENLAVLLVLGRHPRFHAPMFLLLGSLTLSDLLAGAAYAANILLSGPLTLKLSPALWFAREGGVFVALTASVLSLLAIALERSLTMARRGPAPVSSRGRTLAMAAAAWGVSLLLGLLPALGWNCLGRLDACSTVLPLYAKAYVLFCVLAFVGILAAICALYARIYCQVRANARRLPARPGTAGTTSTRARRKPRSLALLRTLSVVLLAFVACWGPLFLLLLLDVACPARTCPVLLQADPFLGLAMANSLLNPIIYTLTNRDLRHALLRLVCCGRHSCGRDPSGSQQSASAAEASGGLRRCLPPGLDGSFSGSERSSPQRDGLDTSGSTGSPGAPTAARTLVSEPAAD
# Outline: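 Antagonist readout: after 15 min compound preincubation at 37° C, human S1PR5/Gq CHO cells loaded with Fluo 8 dye received an EC80 challenge of S1PR5-specific agonist, and fluorescence was recorded for 3 min. Maximal-over-background ratios, normalized as % inhibition, gave IC50 by logistic fit.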
SMILES,EC50 (HFL-1 cells [1]),EC50 (HFL-1 cells [2]),EC50 [3],Ashcroft score difference [4],Ashcroft score difference [5],EC50 [6],EC50 (S1PR2),EC50 [7]
"O=C(O)Cn1nc(Cc2nc3cc(Cl)c(OCC4CC4)cc3[nH]2)c2ccccc2c1=O [Compound 115, 2-[4-[[5-chloro-6-(cyclopropylmethoxy)-1H-benzimidazol-2-yl]methyl]-1-oxo-phthalazin-2-yl]acetic acid]",51.8 nM,5.73 nM,3620 nM,statistically significant Ashcroft score difference,statistically significant Ashcroft score difference,–,–,–
"O=C(O)Cn1nc(Cn2[nH]c3cc(OCC4CC4)c(Cl)cc3c2=O)c2ccccc2c1=O [Compound 134, 2-[4-[[5-chloro-6-(cyclopropylmethoxy)-3-oxo-1H-indazol-2-yl]methyl]-1-oxo-phthalazin-2-yl]acetic acid]",163 nM,10.1 nM,12000 nM,–,–,10 nM,745 nM,19800 nM
"N#Cc1cc2[nH]c(Cc3nn(CC(=O)N4CCN(CC5CC5)CC4)c(=O)c4ccccc34)nc2cc1OCC(F)F [Compound 218, 2-[[3-[2-[4-(cyclopropylmethyl)piperazin-1-yl]-2-oxo-ethyl]-4-oxo-phthalazin-1-yl]methyl]-6-(2,2-difluoroethoxy)-3H-benzimidazole-5-carbonitrile]",15200 nM,151 nM,≥ 19800 nM,–,–,1410 nM,526 nM,19800 nM
"CC(C(=O)O)n1nc(Cc2cn3cc(OCC4CC4)c(C#N)cc3n2)c2ccccc2c1=O (centres unmarked) [Compound 81, 2-[4-[[7-cyano-6-(cyclopropylmethoxy)imidazo[1,2-a]pyridin-2-yl]methyl]-1-oxo-phthalazin-2-yl]propanoic acid]",151 nM,20 nM,≥ 19800 nM,–,–,22.6 nM,120 nM,19800 nM
"N#Cc1cc2[nH]c(Cn3nc(CC(=O)N4C[C@H](O)[C@@H](O)C4)c(=O)c4ccccc43)nc2cc1OCC1CC1 [compound 10, 6-(cyclopropyl-methoxy)-2-[[3-[2-[(3S,4S)-3,4-dihydroxy-pyrrolidin-1-yl]-2-oxo-ethyl]-4-oxo-cinnolin-1-yl]methyl]-3H-benzimidazole-5-carbonitrile]",3.17 nM,0.567 nM,≥ 19800 nM,–,–,4.55 nM,11.6 nM,19800 nM
"N#Cc1cc2nc(Cc3nn(CC(=O)N4CCC[C@H]4CO)c(=O)c4ccccc34)[nH]c2cc1OCC(F)F [Compound 198, 6-(2,2-difluoroethoxy)-2-[[3-[2-[(2S)-2-(hydroxymethyl)pyrrolidin-1-yl]-2-oxo-ethyl]-4-oxo-phthalazin-1-yl]methyl]-1H-benzimidazole-5-carbonitrile]",210 nM,74.8 nM,≥ 19800 nM,–,–,416 nM,486 nM,19800 nM
"O=c1c2ccccc2c(Cc2nc3cc(Cl)c(OC(F)(F)F)cc3[nH]2)nn1C1CCNC1 (centres unmarked) [Compound 59, 4-[[6-chloro-5-(trifluoromethoxy)-1H-benzimidazol-2-yl]methyl]-2-pyrrolidin-3-yl-phthalazin-1-one]",180 nM,98.8 nM,≥ 19800 nM,–,–,94.4 nM,42 nM,19800 nM
